Measured values reported in patent US5077207A, “Process for the production of L-threonine by fermentation” (Ajinomoto Co., Inc., priority 1989, dated 1991).

Columns and labels:
AJ 12360 (Mutant) = assay: Degree of AHV resistance (growth in glucose minimum liquid medium, absorbance); format: cell-based; details: [Brevibacterium] flavum, 24 h, read-out: Relative Degree of Growth (%)
Experimental: (§1) Thereafter, the degrees of AHV resistance of DPS deleted strains AJ 12360 and AJ 12361 were compared against their parent strains. The degree of AHV resistance was determined by cultivating the strain in the complete agar plate medium shown in Table 2 which also contained 1 g/l of DAP, […] of dipicolinic acid and further, in the case of AJ 12361 and its parent strain AC 664, 300 mg/l of L-histidine hydrochloride as a growth promoting substance, at 30° C. for 24 hours. The same medium dispensed in 3 ml into test tubes, was inoculated with the cells, and the inoculated media were cultured while being shaked for 24 hours. The absorbance of each medium was measured at 566 nm under conditions in which AHV was added or was not added to a given medium. To each glucose minimum liquid medium prepared were added, as growth promoting substances, 200 mg/l of L-histidine hydrochloride, in the case of AJ 12361 and AC 664 strains, and 500 mg/l each of DAP and lysine in the case of AJ 12360 and AJ 11955 strains. Especially, since DAP or DAP and lysine often promoted the growth of the DPS deleted or reduced strain, DAP was added to the liquid and plate media in the experiments described so far as needed. […]

AJ 12361 (Mutant) = assay: as above; format: cell-based; details: [Brevibacterium] flavum, 24 h, read-out: Relative Degree of Growth (%)
Experimental: as §1

Homoserine Dehydrogenase = Homoserine Dehydrogenase (Corynebacterium glutamicum, UniProt P08499); assay: Homoserine dehydrogenase feedback inhibition by threonine (crude enzyme solution); format: biochemical, Brevibacterium flavum; details: 1 mM threonine
Chain of Homoserine Dehydrogenase (P08499 whole entry): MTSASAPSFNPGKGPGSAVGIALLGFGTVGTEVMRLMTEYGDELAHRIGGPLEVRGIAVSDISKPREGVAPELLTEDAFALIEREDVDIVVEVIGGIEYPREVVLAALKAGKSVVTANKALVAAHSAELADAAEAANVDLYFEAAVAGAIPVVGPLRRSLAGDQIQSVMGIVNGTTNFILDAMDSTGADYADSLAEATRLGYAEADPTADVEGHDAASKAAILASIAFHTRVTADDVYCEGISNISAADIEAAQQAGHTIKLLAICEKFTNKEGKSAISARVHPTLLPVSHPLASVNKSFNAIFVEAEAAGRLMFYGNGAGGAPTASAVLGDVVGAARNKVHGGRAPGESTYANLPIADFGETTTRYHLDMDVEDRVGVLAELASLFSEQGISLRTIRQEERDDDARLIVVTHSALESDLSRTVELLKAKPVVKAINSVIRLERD
Experimental: The amount of threonine produced in a given fermentation experiment was measured by the method described below, and the amount of lysine produced was measured by an acidic ninhydrin method. Further, the DPS activity was measured as follows. A medium obtained by adding 1 g/l of DAP to a medium useful for threonine production shown in Table 3 was dispensed in 20 ml amounts into 500 ml flasks which could be shaken. The flasks were sterilized by autoclaving. The medium compositions used were N50S30 for the AJ 12360 strain and N25S35 for the AJ 12361-2 and DA 110 strains. Each medium was inoculated with one loop of the strain which had been previously cultivated in a complete agar plate medium shown in Table 2. Each medium was supplemented with 1 g/l of DAP and 300 mg/l of L-histidine hydrochloride at 30° C. for 24 hours, and culturing was conducted at 30° C. for 40 hours in the shaking flasks. The cells were collected and washed with a 0.2% potassium chloride solution. These washed cells were suspended in a 50 mM potassium phosphate buffer (pH 7.0), and then were centrifugally separated after ultrasonic treatment in a supernatant. The supernatant was gel filtered through a Sephadex G25 column using the same buffer to prepare a crude enzyme solution. The activity was measured by carrying out the reaction at 30° C. for 10 minutes, terminating the reaction by adding 1 ml of 0.05 N hydrochloric acid thereto, and then measuring the change in absorbance at 340 nm by using a reaction mixture shown in Table 8 to determine the amount of pyruvic acid consumed. The control for this reaction was a DL-aspartate-β-semialdehyde-free system. The HD activity was measured as follows. The crude enzyme solution was prepared in a manner similar to that employed in the above-described DPS activity measurement, except that a 0.1 M potassium phosphate buffer containing 0.5 M potassium chloride (pH 7.0) was used as the buffer instead of the 50 mM potassium phosphate buffer. The activity measurement was conducted by measuring the reduction in absorbance at 340 nm in the reaction system shown in Table 9. The control for this reaction was a DL-aspartate-β-semialdehyde-free system. […]

SMILES	activity at 200000 µg/mL (AJ 12360 (Mutant))	activity at 500000 µg/mL (AJ 12360 (Mutant))	activity at 1 g/mL (AJ 12360 (Mutant))	activity at 200000 µg/mL (AJ 12361 (Mutant))	activity at 500000 µg/mL (AJ 12361 (Mutant))	activity at 1 g/mL (AJ 12361 (Mutant))	Homoserine Dehydrogenase Feedback Inhibition (%)** (Homoserine Dehydrogenase; enzyme from strain AC 664 (Parent strain))	Homoserine dehydrogenase feedback inhibition by threonine (%) (Homoserine Dehydrogenase; enzyme from strain AJ 11955 (parent strain))	Homoserine dehydrogenase feedback inhibition by threonine (%) (Homoserine Dehydrogenase; enzyme from strain AJ 12360 (mutant))	Homoserine Dehydrogenase Feedback Inhibition (%)** (Homoserine Dehydrogenase; enzyme from strain AJ 12361 (Mutant))	Homoserine Dehydrogenase Feedback Inhibition (%)** (Homoserine Dehydrogenase; enzyme from strain AJ12362 (Mutant))	Homoserine Dehydrogenase Feedback Inhibition (%)** (Homoserine Dehydrogenase; enzyme from strain AJ12363 (Mutant))	Homoserine Dehydrogenase Feedback Inhibition (%)** (Homoserine Dehydrogenase; enzyme from strain DA 110 (Mutant))
CCC(O)C(N)C(=O)O (stereo not drawn) [AHV, α-amino-β-hydroxyvaleric acid]	46.7%	42.6%	37.5%	105%	65.8%	39.1%							
C[C@@H](O)[C@H](N)C(=O)O [threonine, L-threonine]							98%	98%	98%	98%	96%	16%	98%
